In general, melting point refers to the temperature of the solid-liquid transition.

For 2 compounds, melting point results are on record in US20040072842A1 (published 2004).

Take `O=C(COCc1ccccc1)N1CCN(c2ccc(N3C[C@H](CNC(=S)C(F)F)OC3=O)cc2)CC1`: the melting point fell in the range of 166 to 168 °C.
The value for `O=C(CO)N1CCC(c2ccc(N3C[C@H](CNC(=S)C(F)F)OC3=O)cc2F)CC1` was 151 to 152 °C.
